Results on 16 compounds are retold here after PubChem BioAssay (NCI).

Molecules are shown by their SMILES.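 Interpolation was linear, between the two tested concentrations surrounding the appropriate level; five concentrations were tested over 48 hours in 96-well plates. Here, GI50 denotes the concentration required for 50% inhibition of growth. TGI: total growth inhibition.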 Bounds are passed on as bounds.

Some test systems named below: SF-539 CNS; MOLT-4 leukemia; NCI-H460 lung; TK-10 renal; HCC-2998 colon; OVCAR-8 ovarian; NCI/ADR-RES ovarian; SK-MEL-2 melanoma; SN12C renal; HS 578T breast.
What all share (test): inhibition of tumour cell growth, NCI panel, 48 h

Regarding `O=C1[C@H](O)[C@@H]2C(O)O[C@H]3[C@@H]2N1C[C@H]3[Si](c1ccccc1)(c1ccccc1)c1ccccc1` (some centres undefined), the TGI in the experiment with SF-539 CNS, in the experiment with MOLT-4 leukemia, in the experiment on NCI-H460 lung, in the experiment on TK-10 renal, in the experiment with HCC-2998 colon and with OVCAR-8 ovarian was greater than 100 µM throughout. In addition, the TGI in the experiment on NCI/ADR-RES ovarian and in the experiment with SK-MEL-2 melanoma was greater than 100 µM in each case.
On to `Cc1ccc(C(=N)c2ccccc2Cc2cccc3ccccc23)c2ccccc12`, for which the TGI in the experiment with SF-539 CNS, with MOLT-4 leukemia, in the experiment on NCI-H460 lung, with SN12C renal, with HS 578T breast and in the experiment on TK-10 renal was greater than 100 µM throughout. For the same compound, the TGI with OVCAR-8 ovarian, in the experiment with NCI/ADR-RES ovarian and in the experiment on SK-MEL-2 melanoma was greater than 100 µM in each case.
As to `CCCCCOc1ccc(C=Nc2ccc(CCc3ccc(N=Cc4ccc(OCCCCC)cc4)cc3)cc2)cc1`, the TGI in the experiment on SF-539 CNS, with MOLT-4 leukemia, in the experiment with NCI-H460 lung, in the experiment with SN12C renal, in the experiment on HCC-2998 colon and in the experiment on OVCAR-8 ovarian was greater than 100 µM throughout. Also, the TGI in the experiment with NCI/ADR-RES ovarian and with SK-MEL-2 melanoma was greater than 100 µM each time.
Take `CCn1nc(C)c2c1C(=O)NCC(=O)N2`: the TGI with SF-539 CNS, in the experiment on NCI-H460 lung, in the experiment on SN12C renal, with HS 578T breast, with TK-10 renal and in the experiment with OVCAR-8 ovarian was greater than 100 µM each time.
`CNC(C)(C)Cc1ccc(Cl)cc1`: the TGI in the experiment with SF-539 CNS, with MOLT-4 leukemia, in the experiment with NCI-H460 lung, with SN12C renal, in the experiment on TK-10 renal and in the experiment with HCC-2998 colon was greater than 100 µM in each case. For the same compound, the TGI in the experiment with OVCAR-8 ovarian and with SK-MEL-2 melanoma was greater than 100 µM throughout.
In the case of `c1ccc(-c2csc3c4ccccc4c4ccccc4[n+]23)cc1`, the TGI was 14.8 µM in the experiment on SF-539 CNS; greater than 25.5 µM with MOLT-4 leukemia; 10.2 µM with NCI-H460 lung; 11.2 µM with SN12C renal; 43.6 µM with TK-10 renal; 13 µM in the experiment on HCC-2998 colon. Besides, the TGI in the experiment with OVCAR-8 ovarian came out at 17.9 µM; with SK-MEL-2 melanoma it was 7.71 µM.
For the compound `N#CCCN(CCC#N)c1ccc(/C=C2\N=C(c3ccccc3)N(c3ccc(F)cc3)C2=O)cc1`, the TGI with SF-539 CNS, with MOLT-4 leukemia, in the experiment on NCI-H460 lung, in the experiment with SN12C renal, with HS 578T breast and in the experiment on TK-10 renal was greater than 100 µM throughout. For the same compound, the TGI with OVCAR-8 ovarian, in the experiment on NCI/ADR-RES ovarian and with SK-MEL-2 melanoma was greater than 100 µM each time.
As to `COc1cc(/C=C2\C(=O)N(c3cccc([N+](=O)[O-])c3)C(c3ccccc3)S2(=O)=O)cc(OC)c1OC` (centres undefined), the TGI in the experiment on MOLT-4 leukemia, in the experiment on NCI-H460 lung, in the experiment on SN12C renal, in the experiment with TK-10 renal, in the experiment with HCC-2998 colon and with OVCAR-8 ovarian was greater than 100 µM throughout. Moreover, the TGI in the experiment with NCI/ADR-RES ovarian and in the experiment on SK-MEL-2 melanoma was greater than 100 µM each time.
On to `NC(=O)Nc1c(Cl)cc(S(N)(=O)=O)cc1Cl`, for which the TGI in the experiment with SF-539 CNS, in the experiment on MOLT-4 leukemia, in the experiment with SN12C renal, in the experiment on HS 578T breast, in the experiment with TK-10 renal and with OVCAR-8 ovarian was greater than 100 µM throughout. In addition, the TGI in the experiment on NCI/ADR-RES ovarian and in the experiment with SK-MEL-2 melanoma was greater than 100 µM in each case.
Consider `Cc1ccc(C)c(NC(=O)C(=O)C(C(=O)c2ccc3ccccc3c2)C2OC(=O)c3ccccc32)c1` (centres undefined), for which the TGI in the experiment on SF-539 CNS was 17.4 µM; in the experiment on MOLT-4 leukemia, greater than 100 µM; in the experiment on NCI-H460 lung it was 27.7 µM; with SN12C renal it was 39.8 µM; with TK-10 renal, 64.6 µM; in the experiment with HCC-2998 colon it was 28.7 µM. Besides, the results for the TGI in the experiment on OVCAR-8 ovarian and in the experiment on SK-MEL-2 melanoma were 20.3 µM and 44.7 µM, respectively.
As to `COc1ccc(N2CC(=O)N(C(=O)COc3ccc(OCC(=O)N4C(=O)CN(c5ccc(OC)cc5)C4=S)cc3)C2=S)cc1`, the TGI in the experiment on MOLT-4 leukemia, with NCI-H460 lung, in the experiment on SN12C renal, in the experiment on TK-10 renal, with HCC-2998 colon and in the experiment on NCI/ADR-RES ovarian was greater than 100 µM each time. In addition, in the experiment with SK-MEL-2 melanoma, the TGI is greater than 100 µM.
For the compound `COc1cc(C2c3c(ccc4ccccc34)C(=O)C3CCC(=O)N32)cc(OC)c1OC` (centres undefined), the TGI with SF-539 CNS, with MOLT-4 leukemia, in the experiment on NCI-H460 lung, in the experiment on SN12C renal, with HS 578T breast and in the experiment with OVCAR-8 ovarian was greater than 50 µM throughout. Besides, the TGI in the experiment with NCI/ADR-RES ovarian and in the experiment with SK-MEL-2 melanoma was greater than 50 µM throughout.
In the case of `CC1=NNC(=O)C1C1C(=O)NN=C(c2c[nH]c3ccccc23)C1Br` (centres undefined), the TGI was greater than 100 µM in the experiment on SF-539 CNS; 80.3 µM in the experiment on MOLT-4 leukemia; greater than 100 µM in the experiment with NCI-H460 lung; greater than 100 µM in the experiment with SN12C renal; greater than 100 µM with HS 578T breast; greater than 100 µM in the experiment on TK-10 renal. For the same compound, the TGI in the experiment on OVCAR-8 ovarian was greater than 100 µM; in the experiment on NCI/ADR-RES ovarian it was greater than 100 µM; in the experiment with SK-MEL-2 melanoma it was 84.8 µM.
Consider `CCO/C(=N/S(=O)(=O)C(F)(F)F)N(C(C)C)C(C)C`, for which the TGI with SF-539 CNS, in the experiment on MOLT-4 leukemia, with NCI-H460 lung, with SN12C renal, with HS 578T breast and in the experiment with TK-10 renal was greater than 100 µM in each case. Besides, the TGI in the experiment with OVCAR-8 ovarian, with NCI/ADR-RES ovarian and with SK-MEL-2 melanoma was greater than 100 µM each time.
For `CSc1ncc2c(n1)C(C#N)C1Sc3ccccc3N1C2=O` (centres undefined), the TGI with SF-539 CNS, with MOLT-4 leukemia, in the experiment on NCI-H460 lung, in the experiment on SN12C renal, with TK-10 renal and in the experiment with OVCAR-8 ovarian was greater than 100 µM each time. The compound further displayed a TGI with NCI/ADR-RES ovarian greater than 100 µM.
As to `Cc1cc([NH-])c([NH-])cc1C.[Cl][Pt+2][Cl]`, the GI50 in the experiment with SF-539 CNS is 8.5 µM; in the experiment with MOLT-4 leukemia, 5.07 µM; in the experiment on NCI-H460 lung, 4.97 µM; in the experiment on SN12C renal, 8.13 µM; in the experiment on HCC-2998 colon, greater than 44.8 µM; in the experiment on OVCAR-8 ovarian, 16.8 µM. Further, the GI50 in the experiment with NCI/ADR-RES ovarian was 16.3 µM. The TGI is greater than 31.6 µM with SF-539 CNS; 41.6 µM with MOLT-4 leukemia; greater than 43.8 µM in the experiment on NCI-H460 lung; 24.6 µM in the experiment on SN12C renal; 99.1 µM in the experiment on HCC-2998 colon; greater than 55.5 µM with OVCAR-8 ovarian. Besides, the TGI with NCI/ADR-RES ovarian amounted to 42.7 µM.
